# Where “and” joins values, the source holds several entries; their conditions need not be identical. Equal values may be shown once. Read-outs that look alike come from different tables or passages of the source. Marks after values point to notes of the source that are not given here.
# Key:
# physchem = details: pH 7.4, aqueous buffer, kinetic from dmso stock
# Method: Samples were incubated at room temperature for 6 h and vacuum-filtered using Tecan Te-Vac to remove any precipitates. The concentration of the compound in the filtrate was measured via UV absorbance (λ: 250–498 nm). […] All compounds were tested in duplicates. The kinetic solubility (µg/mL) of compounds was calculated using the µSOL Evolution software.
# UGT enzymes = details: cited from earlier work
# in vivo [1] = details: hamster, in vivo
# Method: For the IV group, a single bolus IV dose of 3 mg/kg of PDN was administered to 24 hamsters (3 hamsters per time point). For the PO group, a dose of 30 mg/kg of PDN was administered via oral gavage to 21 hamsters (3 hamsters per time point). The formulation used for both IV and PO was 20% HP-β-CD in water (0.6 mg/mL PDN for IV and 3 mg/mL for PO). All dosing solutions were freshly prepared on the day of dosing. […] After collection, tissues were weighed and frozen. All blood samples were centrifuged at 4°C to obtain plasma. Plasma samples were transferred to tubes preloaded with NaF (final concentration at 5 mM in 200 µL plasma) and stored at −80°C until analysis.
# (§1) For fat tissue, an additional 3-fold volume of acetonitrile was added to the water homogenate and was vortexed in a shaker for another 30 min.
# (§2) A 10 μ aliquot of samples, blank controls (blank plasma or tissue homogenates), quality controls (QC), and standards were added into 200 μ acetonitrile solution with 100 ng/mL tolbutamide (internal standard, IS). All samples were then thoroughly shaken for 5 min to precipitate proteins. The samples were centrifuged at 3000 rpm and 4°C for 30 min. The supernatant was injected for UPLC-MS/MS analysis.
# (§3) The mobile phase consisted of 0.1% formic acid in water (A) and 0.1% formic acid in acetonitrile (B), the flow rate was 600 μL/min. […] All analyses were carried out using a Waters Acquity I-Class UPLC interfaced with a Waters Xevo TQ-S mass spectrometer. The mass spectrometer multiple reaction monitoring (MRM) experiment was operated with an ESI source at negative mode with spray voltage of 1 kV, and temperature of 600°C. Both Q1 and Q3 were set at unit resolution. […] The correlation coefficients of the calibration curves were all greater than 0.99. […] The linear range, precision and accuracy of QCs in various tissues and plasma are shown in Supplementary Table S1 and Supplementary Table S2.
# (§4) The area under the concentration vs. time curve (AUC) was calculated using the linear trapezoidal method. The terminal rate constant (λ) was obtained from the slope of at least three data points of the apparent terminal phase of the log linear concentration vs. time curve. AUC0–∞ was estimated as the sum of the AUC0–t (where t is the time of the last measurable concentration) and Ct/λ. […] Bioavailability (F) was calculated using ratios of dose-normalized AUC of PO and IV administration.
# [2] = mouse, pH 7.4
# Method: (§7) The incubation was carried out at 37°C for 15, 30, and 60 min. The reaction in plasma or liver microsomes was quenched by adding 200 μL of cold acetonitrile (containing 100 ng/mL tolbutamide as internal standard).
# (§8) The mc was the microsome concentration used in the incubation (0.5 mg/mL). The substrate disappearance half-life (t1/2) was estimated by regression analysis of the semi-logarithmic (ln Conc vs. time) plots. […] The Vmax, in vitro,app, PDN-total and Km for PDN depletion in liver microsomes were estimated by the Michaelis-Menten model using GraphPad Prism version 8.
# [3] = rats, acute toxicity test; ref Andrews et al., 1982; cited from earlier work
# [4] = PBPK model (GastroPlus): simulation and model parameters incl. permeability surface product and scaled metabolic kinetics, human; details: conversion to Others
# [5] = cited from earlier work
# in vivo [6] = details: male, C57BL/6, mouse, in vivo
# Method: The in-life study (Animal Study Protocol Number: NIH ORS-51) was conducted at the NIH Animal Facility by the Division of Veterinary Resources (DVR, Bethesda, MD). In this study, 25–35 g male C57BL/6 mice (Charles River Laboratories, Frederick, MD) were used. For the IV groups, 66 mice (33 mice per dosing group, 3 mice per timepoint) were used for a single bolus IV dose of 3 or 10 mg/kg of PDN via tail vein injection. […] The IV and PO doses were selected to obtain a complete concentration profile in plasma and tissues, based on a preliminary study. Animals were not fasted in this study. […] All dosing solutions were freshly prepared on the day of dosing. At designated time points, blood samples were collected, and mice were euthanized with CO2 in accordance with NIH ARAC Guidelines after blood collection. The death was ensured by cervical dislocation or transthoracic puncture. Lung, liver, adipose, brain, heart, small intestine, kidney, skeletal muscle, and spleen samples were obtained from mice. […] Tissue samples were rinsed with cold saline, dried on filtrate paper, weighed, and snap frozen by placing into dry ice after collection. All samples were stored at −80°C until the analysis. All blood samples were collected in K2EDTA tubes and centrifuged at 3000 g for 10 min at 4°C to obtain plasma. Plasma samples were transferred to tubes preloaded with NaF (final concentration at 5 mM in 200 µL plasma) and stored at −80°C until analysis.
# as §1, §2, §3, §4
# [7] = PBPK model (GastroPlus): simulation and model parameters incl. permeability surface product and scaled metabolic kinetics, mouse; details: conversion to Others
# Method: (§5) CL in vitro,app expressed as mL/min/mg microsomes were scaled to the predicted CLintrinsic using scaling factor (SF), microsome level and liver weight as indicated below: CLintrinsic=CLin vitro,app×SF×liver weight×microsome level per gram liver
# (§6) All modeling and simulation were carried out using GastroPlus version 9.5 (Simulations Plus Inc., CA). Physiochemical parameters including blood-to-plasma ratio (Rbp), pKa, and logP were predicted by ADMET predictor (Simulations Plus Inc., CA). Physiologies of all species, including organ weights, volumes, tissue compositions, and blood perfusion rates, were generated by the program’s internal module. Tissue intracellular unbound fractions were generated by GastroPlus based on predicted or experimentally determined physiochemical and chemical-biological parameters including pKa, logP, plasma unbound fractions (Fup), Rbp, solubility, and PAMPA permeability. The PBPK model structure is illustrated in Figure 2 and its parameters are summarized in Supplementary Tables S3–6. The default absorption and dissolution model was applied and effective intestine permeability was predicted by a built-in correlation from the experimental PAMPA permeability result. Parameters including partition coefficients in tissue (Kp), CLintrinsic, and permeability surface area product (PStc) were estimated by fitting the model to experimental data using the optimization module in GastroPlus with objective function weights at 1/(y + ŷ)^2, where y is the observed value and ŷ is the predicted value.
# Model parameter estimation of all plasma-tissue partition coefficients (Kp) was performed simultaneously using both the IV and PO datasets. […] The experimentally determined pharmacokinetic profiles were compared with the model simulations.
# [8] = rat, in vivo, cited from earlier work
# [9] = human, in vivo, po, cited from earlier work
# [10] = cited from earlier work; remark: listed apart in the source
# [11] = dog, in vivo; cited from earlier work
# [12] = PBPK model (GastroPlus): simulation and model parameters incl. permeability surface product and scaled metabolic kinetics, hamster; details: conversion to Others
# Method: as §5, §6
# Experimental measurements of hamster plasma pharmacokinetics and lung concentrations were used in the model validation.
# [13] = hamster, pH 7.4
# Method: as §7, §8
# [14] = human, pH 7.4
# Method: as §7, §8
# [15] = human; cited from earlier work
# in vitro = details: PAMPA, pH 7.4
# Method: The test samples (0.05 mM test article in pH 7.4 buffer with 0.5% DMSO) were added in the donor compartment and were stirred using the Gutbox technology (Pion Inc.) to reduce the aqueous boundary layer. The test article concentrations in the donor and acceptor compartments were measured using a UV plate reader (Nano Quant, Infinite 200 PRO, Tecan Inc., Männedorf, Switzerland).
# [16] = male, LVG golden Syrian, po, 30 mg/kg
# [17] = in vivo, predicted from in vitro liver parameters
structure (smiles),measurement,setting,value
"CCCSc1ccc2nc(NC(=O)OC)[nH]c2c1 [Albendazole, reference compound]",solubility,physchem,< 1 µg/mL
"O=C(Nc1ccc([N+](=O)[O-])cc1Cl)c1cc(Cl)ccc1O [Nc, Niclosamide, reference compound]",Km,UGT enzymes,0.09 to 1.67 µM
same,"UGT-mediated hepatic CL in vitro,app",UGT enzymes; mouse,0.18-0.21 mL/min/mg microsomes
same,AUC0-∞ Observed,"in vivo [1]; iv, 3 mg/kg",1030 (98) h*ng/g
same,AUC0-∞ Observed,"in vivo [1]; po, 30 mg/kg",5020 (294) h*ng/g
same,AUC(0-inf),"in vivo [1]; male, LVG golden Syrian, iv, 3 mg/kg",203 ng·h/mL
same,AUC(0-inf),in vivo [1]; [16],1890 ng·h/mL
same,Cmax,in vivo [1]; [16],1170 ng/g and 623 ng/mL
same,dose normalized plasma AUC0-∞ of Nc,in vivo [1]; [16],88 (h*ng/mL)/(mg/kg)
same,Tmax,"in vivo [1]; male, LVG golden Syrian, po, 30 mg/kg, Tmax Observed",1 h
same,half-life,"in vivo [1]; male, LVG golden Syrian, po, 30 mg/kg, t1/2 Observed",~1.9 h
same,Liver Vmax,[2],0.07474 mg/s/mg microsomes
same,oral LD50,[3],> 5000 mg/kg
same,Liver Vmax,[4]; in vivo (scaled),0.0738 mg/s/mg microsomes
same,Gut Vmax,[4]; [17],0.0317 mg/s/mg microsomes
same,PAMPA permeability,[5],<1 ^b 10^−6 cm/s
same,AUC(0-inf),"in vivo [6]; iv, 3 mg/kg",577 ng·h/mL
same,AUC(0-inf),"in vivo [6]; iv, 10 mg/kg",1390 ng·h/mL
same,AUC(0-inf),"in vivo [6]; po, 10 mg/kg",1610 ng·h/mL
same,Cmax,"in vivo [6]; po, 10 mg/kg",346 ng/mL
same,dose-normalized AUC0-∞ of Nc,"in vivo [6]; po, 10 mg/kg",216 (h*ng/mL)/(mg/kg)
same,Liver Vmax,[7]; in vivo (scaled),0.0949 mg/s/mg microsomes
same,Gut Vmax,[7]; [17],0.0408 mg/s/mg microsomes
same,oral bioavailability,[8]; po,5.5%
same,volume of distribution,[8],less than 0.4 L/kg
same,plasma Cmax,[9]; 500 mg,35.7 to 182 ng/mL
same,"serum maximal concentration (Cmax), Nc equivalent",[9]; 2000 mg,250 to 6000 ng/mL
same,median plasma Cmax,[9],665 ng/mL
same,Fup (unbound fraction in plasma),[10],0.14% (rodent) ^b
same,plasma protein binding,[10],> 99.8%
same,oral bioavailability,[11],0.54%
same,Liver Vmax,[12]; in vivo (scaled),0.1463 mg/s/mg microsomes
same,Gut Vmax,[12]; [17],0.0629 mg/s/mg microsomes
same,Liver Vmax,[13],0.1152 mg/s/mg microsomes
same,Liver Vmax,[14],0.0581 mg/s/mg microsomes
same,Fup (unbound fraction in plasma),[15],0.16% (human) ^b
"Nc1ccc(/N=N/c2ccccc2)c(N)n1 [Phenazolpyridine, reference compound]",solubility,physchem,26 µg/mL
"CNC(=C[N+](=O)[O-])NCCSCc1ccc(CN(C)C)o1 [Ranitidine, reference compound]",Papp at 0.05 mM,in vitro,< 1 ×10⁻⁶ cm/s
